Measured values from patent publication US7265099B1, “Use of chemical chelators as reversal agents for drug-induced neuromuscular block” (Organon N.V., priority 1999, dated 2007).

Experiments:
[1] = system: steady-state neuromuscular block induced by rocuronium bromide (Roc); experiment: Reversal of neuromuscular blockade in vivo, anaesthetized guinea pig, rocuronium
Procedure: (§1) Male Dunkin-Hartley guinea pigs (bodyweight: 600–900 g) were anaesthetized by i.p. administration of 10 mg/kg pentobarbitone and 1000 mg/kg urethane. After tracheotomy, the animals were artificially ventilated using a Harvard small animal ventilator. A catheter was placed into the carotid artery for continuous monitoring of arterial blood pressure and the taking of blood samples for blood gas analysis. Heart rate was derived from the blood pressure signal. The sciatic nerve was stimulated (rectangular pulses of 0.5 ms duration at 10 s (0.1 Hz) intervals at a supramaximal voltage, using a Grass S88 Stimulator) and the force of M. gastrocnemius contractions was measured using a Grass FT03 force-displacement transducer. Contractions, blood pressure and heart rate were recorded on a multichannel Grass 7D recorder. Catheters were placed in both jugular veins. One catheter was used for the continuous infusion of a neuromuscular blocking agent. The infusion rate of the neuromuscular blocking agent was increased until a steady-state block of 85–90% was obtained. The other catheter was used for administration of increasing doses of the reversal agent. During continuous infusion of the neuromuscular blocking agent, single doses of increasing concentration of reversal agent were given. At the end of the experiment, the measured force of muscle contractions was plotted against the concentration of reversal agent, and using regression analysis techniques, the 50% reversal concentration was calculated.
Reversal of neuromuscular block in vivo, induced by rocuronium bromide, was carried out as described in Example 5.

[2] = system: steady-state neuromuscular block induced by vecuronium bromide (Vec); experiment: Reversal of neuromuscular blockade in vivo, anaesthetized guinea pig, vecuronium; details: Vec infusion, 85–90% block, anaesthetized guinea pigs, i.v. reversal agent; mean
Procedure: as §1

[3] = system: neuromuscular block induced by rocuronium in isolated mouse hemidiaphragm; experiment: Reversal of neuromuscular block in vitro: isolated mouse hemidiaphragm preparation; details: for maximum reversal / EC50: rocuronium bromide 3.6 μM in the bath, 95% block; for maximum reversal / EC50 / concentration of chemical chelator at maximum reversal: mouse hemidiaphragm; for EC50: read-out: 50% reversal concentration; for Mouse hemidiaphragm: maximum reversal (%) / concentration of chemical chelator at maximum reversal: 3.1 μM rocuronium; for Reversal of the neuromuscular blocking action of rocuronium (in words): rocuronium-induced block
Procedure: Hemidiaphragms, with phrenic nerves attached, were removed from euthanized male mice (Institute of Cancer Research; bodyweight: 20–60 g). The preparations were mounted on a tissue holder and placed in a tissue bath filled with a modified Krebs-Henseleit solution (composition: 118 mM NaCl, 30 mM NaHCO3, 5 mM KCl, 1 mM KH2PO4, 1 mM MgSO4, 30 mM glucose and 2.5 mM CaCl2) at 37° C. and bubbled with 95% oxygen and 5% carbondioxide. One end of the preparation was connected with a siliconized silk suture to a Grass FT03 force-displacement transducer. An initial force of 10 mN was applied. The phrenic nerve was placed on a bipolar platinum electrode and was stimulated with rectangular pulses of 0.2 ms duration at 20 s (0.05 Hz) intervals at a supramaximal voltage, using a Grass S88 Stimulator. Contractions were recorded on a four channel Grass 79D recorder.
Increasing amounts of reversal agent were then administered into the bath at intervals of 10 min. The % maximum reversal was established. At the end of the experiment, the measured muscle contractions force was plotted against the concentration of reversal agent, and using regression analysis techniques, the 50% reversal concentration was calculated.
After induction of neuromuscular block by rocuronium, the % maximum reversal produced by the addition of a number of γ-cyclodextrin derivatives (compounds 11–16), a cyclic octasaccharide comprising 4 rhamnosyl-mannopyranosyl units (compound 24), or a number of paracyclophane derivatives (compounds 17–21 and 23) are presented in Table II.
Reversal of neuromuscular block in vitro was carried out using the mouse hemidiaphragm preparation as described in Example 6.

[4] = system: steady-state neuromuscular block induced by suxamethonium chloride (Sux; succinylcholine); experiment: Reversal of neuromuscular blockade in vivo, anaesthetized guinea pig, suxamethonium; details: Sux infusion, 85–90% block, anaesthetized guinea pigs, i.v. reversal agent; mean
Procedure: as §1

[5] = system: steady-state neuromuscular block induced by pancuronium bromide (Pan); experiment: Reversal of neuromuscular blockade in vivo, anaesthetized guinea pig, pancuronium; details: Pan infusion, 85–90% block, anaesthetized guinea pigs, i.v. reversal agent; mean
Procedure: as §1

[6] = system: steady-state neuromuscular block induced by rapacuronium bromide (Rap; Org 9487); experiment: Reversal of neuromuscular blockade in vivo, anaesthetized guinea pig, rapacuronium; details: Rap infusion, 85–90% block, anaesthetized guinea pigs, i.v. reversal agent; mean
Procedure: as §1

[7] = Roc infusion, 85–90% block, anaesthetized guinea pigs, i.v. reversal agent, mean
[8] = rocuronium bromide, anaesthetised guinea pig, as in Example 5

| Compound | Dose (ED50) producing 50% reversal of steady-state neuromuscular block [1, 7] | Dose (ED50) producing 50% reversal of steady-state neuromuscular block [2] | Mouse hemidiaphragm: maximum reversal (%) [3] | concentration of chemical chelator at maximum reversal [3] | also measured |
| --- | --- | --- | --- | --- | --- |
| 2-hydroxy-3-trimethylammonio propyl-β-CD (DS = 3.5) [Compound 3] | 518 (2) μmol.kg^−1 | 1400 (1) μmol.kg^−1 | – | – | – |
| 2-hydroxypropyl-β-CD [Compound 10] | 33 (3) μmol.kg^−1 | 1598 (4) μmol.kg^−1 | – | – | – |
| O=S(=O)(O)c1cc2c(O)c(c1)Cc1cc(S(=O)(=O)O)cc(c1O)Cc1cc(S(=O)(=O)O)cc(c1O)Cc1cc(S(=O)(=O)O)cc(c1O)Cc1cc(S(=O)(=O)O)cc(c1O)Cc1cc(S(=O)(=O)O)cc(c1O)C2 [4-sulfonic calix[6]arene, 4-Sulfonic calix[6]arene] | – | – | – | – | Dose (ED50) producing 50% reversal of steady-state neuromuscular block [1, 8]: 5.1 µmol/kg; maximum reversal [3]: 120%; EC50 [3]: 34 µM |
| O=S(=O)(O)c1cc2c(O)c(c1)Cc1cc(S(=O)(=O)O)cc(c1O)Cc1cc(S(=O)(=O)O)cc(c1O)Cc1cc(S(=O)(=O)O)cc(c1O)Cc1cc(S(=O)(=O)O)cc(c1O)Cc1cc(S(=O)(=O)O)cc(c1O)Cc1cc(S(=O)(=O)O)cc(c1O)Cc1cc(S(=O)(=O)O)cc(c1O)C2 [4-sulfonic calix[8]arene] | – | – | – | – | Dose (ED50) producing 50% reversal of steady-state neuromuscular block [1, 8]: 34 µmol/kg; maximum reversal [3]: 124%; EC50 [3]: 36 µM |
| OC[C@H]1O[C@@H]2O[C@H]3[C@H](O)[C@@H](O)[C@@H](O[C@H]4[C@H](O)[C@@H](O)[C@@H](O[C@H]5[C@H](O)[C@@H](O)[C@@H](O[C@H]6[C@H](O)[C@@H](O)[C@@H](O[C@H]7[C@H](O)[C@@H](O)[C@@H](O[C@H]1[C@H](O)[C@H]2O)O[C@@H]7CO)O[C@@H]6CO)O[C@@H]5CO)O[C@@H]4CO)O[C@@H]3CO [Compound 1, α-cyclodextrin] | 1575 (2) μmol.kg^−1 | 2610 (1) μmol.kg^−1 | – | – | – |
| O=C(O)c1cc2ccc1OCCCCCOc1ccc(cc1C(=O)O)Cc1ccc(c(C(=O)O)c1)OCCCCCOc1ccc(cc1C(=O)O)C2 [Compound 17, 1,7,21,27-tetraoxa-9,17,29,37-tetracarboxy[7.1.7.1]paracyclophane] | – | – | 11% | 360 µM | – |
| O=C(O)c1cc2ccc1OCc1ccc(cc1)COc1ccc(cc1C(=O)O)Cc1ccc(c(C(=O)O)c1)OCc1ccc(cc1)COc1ccc(cc1C(=O)O)C2 [Compound 18, 1,10,24,33-tetraoxa-12,20,35,43-tetracarboxy-[2.2.1.2.2.1]paracyclophane] | – | – | 61% | 288 µM | Reversal of the neuromuscular blocking action of rocuronium (in words) [3]: efficiently blocked |
| O=C(O)CC(=O)N1CCCCCN(C(=O)CC(=O)O)c2ccc(cc2)Cc2ccc(cc2)N(C(=O)CC(=O)O)CCCCCN(C(=O)CC(=O)O)c2ccc(cc2)Cc2ccc1cc2 [Compound 19, N, N′, N″, N′″-Tetrakis(carboxyacetyl)-1,7, 21, 27-tetraaza[7.1.7.1] paracyclophane] | – | – | 2.4% | 108 µM | – |
| O=C(O)CCCC(=O)N1CCCCCN(C(=O)CCCC(=O)O)c2ccc(cc2)Cc2ccc(cc2)N(C(=O)CCCC(=O)O)CCCCCN(C(=O)CCCC(=O)O)c2ccc(cc2)Cc2ccc1cc2 [Compound 20, N, N′, N″, N′″-Tetrakis(4-carboxybutyryl)-1,7, 21, 27-tetraaza[7.1.7.1] paracyclophane] | – | – | 8.7% | 72 µM | – |
| O=C(O)CCC(=O)N1CCCCCN(C(=O)CCC(=O)O)c2ccc(cc2)Cc2ccc(cc2)N(C(=O)CCC(=O)O)CCCCCN(C(=O)CCC(=O)O)c2ccc(cc2)Cc2ccc1cc2 [Compound 21, N, N′,N″, N′″-Tetrakis(3-carboxypropionyl)-1,7, 21, 27-tetraaza[7.1.7.1]para-cyclophane] | – | – | 0% | 360 µM | – |
| O=C(O)CCC(=O)N1CC2CCC(CC2)CN(C(=O)CCC(=O)O)c2ccc(cc2)Cc2ccc(cc2)N(C(=O)CCC(=O)O)CC2CCC(CC2)CN(C(=O)CCC(=O)O)c2ccc(cc2)Cc2ccc1cc2 [Compound 23, N, N′, N″, N′″-Tetra (3-carboxypropionyl)-3,4,5,6,7,8,26,27,28,29,30,31-dodecahydro-1,10,24,33-tetraaza[2.2.1.2.2.1]paracyclophane] | – | – | 90% | 58 µM | Reversal of the neuromuscular blocking action of rocuronium (in words) [3]: efficiently blocked |
| carboxyethyl-β-CD (DS = 3) [Compound 8] | 42 (3) μmol.kg^−1 | 103 (2) μmol.kg^−1 | – | – | Dose (ED50) producing 50% reversal of steady-state neuromuscular block [4]: 408 (2) μmol.kg^−1; Dose (ED50) producing 50% reversal of steady-state neuromuscular block [5]: 479 (2) μmol.kg^−1; Dose (ED50) producing 50% reversal of steady-state neuromuscular block [6]: 412 (2) μmol.kg^−1 |
| carboxymethyl-β-CD (DS 3–3.5) [Compound 7] | 139 (3) μmol.kg^−1 | – | – | – | – |
| carboxymethyl-β-CD (DS = 3.5) [Compound 2] | 134 (2) μmol.kg^−1 | 800 (1) μmol.kg^−1 | – | – | – |
| cyclo[(1–4)-α-L-rhamnopyranosyl-(1–4)-α-D-mannopyranosyl]-tetraoside [Compound 24] | – | – | 86% | 288 µM | Reversal of the neuromuscular blocking action of rocuronium (in words) [3]: efficiently blocked; Reversal of the neuromuscular blocking action of rocuronium (in words) ([3]; listed as cyclo-[(1–4)-α-L-rhamno-pyranosyl-(1–4)-α-D-mannopyranosyl]tetraoside): effective |
| per 2,6-dimethyl-β-CD (DS = 12.6) [Compound 4] | 70 (2) μmol.kg^−1 | 1313 (4) μmol.kg^−1 | – | – | – |
| β-cyclodextrin-phosphate sodium salt (DS = 3) [Compound 5] | 280 (3) μmol.kg^−1 | – | – | – | – |
| β-cyclodextrin-phosphate sodium salt (DS = 8) [Compound 6] | 120 (2) μmol.kg^−1 | – | – | – | – |
| γ-cyclodextrin-phospate sodium salt (DS = 7) [Compound 12] | 52 (2) μmol.kg^−1 | – | 17% | 360 µM | – |
